Measured values as given in ChEMBL document CHEMBL3885881, “DrugMatrix”.

Species on record: Rattus norvegicus
Assay type: toxicity, organism-based, Sprague-Dawley
Details: in vivo, po, route oral GAVAGE, vehicle 100 % SALINE; for ABSOLUTE EOSINOPHIL / ABSOLUTE LYMPHOCYTE / ABSOLUTE MONOCYTE / ABSOLUTE SEGMENTED NEUTROPHIL / BASOPHIL / EOSINOPHIL / ERYTHROCYTE COUNT / HEMATOCRIT / HEMOGLOBIN / LEUKOCYTE COUNT / LYMPHOCYTE / MEAN CORPUSCULAR HEMOGLOBIN / MEAN CORPUSCULAR HEMOGLOBIN CONCENTRATION / MONOCYTE / NEUTROPHIL / NUCLEATED RED BLOOD CELLS / PLATELET COUNT: tissue Blood; for ALANINE AMINOTRANSFERASE / ALBUMIN / ALKALINE PHOSPHATASE / ASPARTATE AMINOTRANSFERASE / BLOOD UREA NITROGEN / CARBON DIOXIDE / CHLORIDE / CHOLESTEROL / CREATINE PHOSPHOKINASE / CREATININE / GLUCOSE / LACTATE DEHYDROGENASE / LIPASE / PHOSPHORUS / POTASSIUM / SODIUM / TOTAL BILIRUBIN / TOTAL PROTEIN / URIC ACID: tissue Plasma
[1] = 0 mg/kg, 6 h, vehicle control, dose level Control, time 0.25 day
[2] = 0 mg/kg, 24 h, vehicle control, dose level Control, time 1 day
[3] = 700 mg/kg, 6 h, dose level Low, time 0.25 day

Description: DrugMatrix - Regimen: Single

## CN(C)C=O [DIMETHYLFORMAMIDE]
[1]
  ABSOLUTE EOSINOPHIL: 24 CELLS/uL
  ABSOLUTE LYMPHOCYTE: 11958.17 CELLS/uL
  ABSOLUTE MONOCYTE: 398.83 CELLS/uL
  ABSOLUTE SEGMENTED NEUTROPHIL: 1252.33 CELLS/uL
  BASOPHIL: 0%
  EOSINOPHIL: 0.17%
  ERYTHROCYTE COUNT: 5.37 x10E6/uL
  HEMATOCRIT: 35.6%
  HEMOGLOBIN: 13.05 G/DL
  LEUKOCYTE COUNT: 13.63 x10E3/uL
  LYMPHOCYTE: 87.67%
  MEAN CORPUSCULAR HEMOGLOBIN: 24.28 pg
  MEAN CORPUSCULAR HEMOGLOBIN CONCENTRATION: 36.67 G/DL
  MONOCYTE: 2.83%
  NEUTROPHIL: 9.33%
  NUCLEATED RED BLOOD CELLS: 0 /100WBC
  PLATELET COUNT: 947.83 x10E3/uL
  ALANINE AMINOTRANSFERASE: 51 u/L
  ALBUMIN: 4.02 G/DL
  ALKALINE PHOSPHATASE: 312.33 u/L
  ASPARTATE AMINOTRANSFERASE: 98.17 u/L
  BLOOD UREA NITROGEN: 9.5 mg/dL
  CARBON DIOXIDE: 18.83 mmol/L
  CHLORIDE: 103.5 MEQ/L
  CHOLESTEROL: 69.5 mg/dL
  CREATINE PHOSPHOKINASE: 580.17 u/L
  CREATININE: 0.53 mg/dL
  GLUCOSE: 175.67 mg/dL
  LACTATE DEHYDROGENASE: 295.5 u/L
  LIPASE: 8.17 u/L
  PHOSPHORUS: 14.12 mg/dL
  POTASSIUM: 5.77 MEQ/L
  SODIUM: 144.13 MEQ/L
  TOTAL BILIRUBIN: 0.12 mg/dL
  TOTAL PROTEIN: 4.87 G/DL
  URIC ACID: 2.25 mg/dL
[2]
  ABSOLUTE EOSINOPHIL: 0 CELLS/uL
  ABSOLUTE LYMPHOCYTE: 12232.83 CELLS/uL
  ABSOLUTE SEGMENTED NEUTROPHIL: 780.17 CELLS/uL
  BASOPHIL: 0%
  EOSINOPHIL: 0%
  ERYTHROCYTE COUNT: 5.18 x10E6/uL
  HEMATOCRIT: 33.48%
  HEMOGLOBIN: 13.22 G/DL
  LEUKOCYTE COUNT: 13.03 x10E3/uL
  LYMPHOCYTE: 93.33%
  MEAN CORPUSCULAR HEMOGLOBIN: 25.57 pg
  MEAN CORPUSCULAR HEMOGLOBIN CONCENTRATION: 39.52 G/DL
  MONOCYTE: 0.17%
  NEUTROPHIL: 6.5%
  NUCLEATED RED BLOOD CELLS: 0 /100WBC
  PLATELET COUNT: 931.5 x10E3/uL
  ALANINE AMINOTRANSFERASE: 60.83 u/L
  ALBUMIN: 4.18 G/DL
  ALKALINE PHOSPHATASE: 283.33 u/L
  ASPARTATE AMINOTRANSFERASE: 80.5 u/L
  BLOOD UREA NITROGEN: 11.83 mg/dL
  CARBON DIOXIDE: 35.33 mmol/L
  CHLORIDE: 98.5 MEQ/L
  CHOLESTEROL: 80 mg/dL
  CREATINE PHOSPHOKINASE: 181.83 u/L
  CREATININE: 0.2 mg/dL
  GLUCOSE: 142.67 mg/dL
  LACTATE DEHYDROGENASE: 65.5 u/L
  LIPASE: 9.83 u/L
  PHOSPHORUS: 9.82 mg/dL
  POTASSIUM: 5.69 MEQ/L
  SODIUM: 143.35 MEQ/L
  TOTAL BILIRUBIN: 0.15 mg/dL
  TOTAL PROTEIN: 6.2 G/DL
  URIC ACID: 0.42 mg/dL
[3]
  ABSOLUTE EOSINOPHIL: 9.5 CELLS/uL
  ABSOLUTE LYMPHOCYTE: 11164.33 CELLS/uL
  ABSOLUTE MONOCYTE: 139.17 CELLS/uL
  ABSOLUTE SEGMENTED NEUTROPHIL: 1270.33 CELLS/uL
  BASOPHIL: 0%
  EOSINOPHIL: 0.17%
  ERYTHROCYTE COUNT: 5.55 x10E6/uL
  HEMATOCRIT: 36.67%
  HEMOGLOBIN: 12.92 G/DL
  LEUKOCYTE COUNT: 12.58 x10E3/uL
  LYMPHOCYTE: 88.83%
  MEAN CORPUSCULAR HEMOGLOBIN: 23.45 pg
  MEAN CORPUSCULAR HEMOGLOBIN CONCENTRATION: 35.43 G/DL
  MONOCYTE: 1%
  NEUTROPHIL: 10%
  NUCLEATED RED BLOOD CELLS: 0 /100WBC
  PLATELET COUNT: 1098.83 x10E3/uL
  ALANINE AMINOTRANSFERASE: 66.17 u/L
  ALBUMIN: 4.17 G/DL
  ALKALINE PHOSPHATASE: 259.5 u/L
  ASPARTATE AMINOTRANSFERASE: 125.5 u/L
  BLOOD UREA NITROGEN: 9.33 mg/dL
  CARBON DIOXIDE: 17.83 mmol/L
  CHLORIDE: 103 MEQ/L
  CHOLESTEROL: 67.67 mg/dL
  CREATINE PHOSPHOKINASE: 882.33 u/L
  CREATININE: 0.3 mg/dL
  GLUCOSE: 174.5 mg/dL
  LACTATE DEHYDROGENASE: 297.17 u/L
  LIPASE: 9.83 u/L
  PHOSPHORUS: 15.98 mg/dL
  POTASSIUM: 6.92 MEQ/L
  SODIUM: 144.05 MEQ/L
  TOTAL BILIRUBIN: 0.13 mg/dL
  TOTAL PROTEIN: 5.7 G/DL
  URIC ACID: 3.3 mg/dL
